System: maternal HIV+ sera (antibodies)
Assay: RIA / ELISA binding of maternal HIV+ sera to gp120 and gp41 peptides (Example 3)
Set-up: species or system human
Procedure: Radioimmunoassay (RIA) and enzyme-linked immunosorbent assay (ELISA) were performed by standard methodologies [E. Engvall, Meth. Immunol., 70:419-439 (1980); S. K. Pierce et al, J. Exp. Med., 144:1254-1262 (1976)]. Peptides were dissolved in 0.05M carbonate-bicarbonate buffer (pH 9.6) at a concentration of 10 μg/ml. Fifty μl (500 ng) of the peptides were immobilized in 96 well polyvinylchloride plates (Dynatech Laboratories, Inc.) overnight at 4° C. Plates were washed and non-specific sites were blocked with PBS containing 1% BSA overnight at 4° C.
Dilutions of HIV positive maternal sera were made in blocking buffer at dilutions of 1:50 and 1:500 and incubated in peptide coated plates overnight at 4° C. Plates were washed with PBS and incubated with 75,000 cpm of ^125 I-labelled goat anti-human IgG. The antibody was iodinated by a chloramine T method [W. V. Williams et al, Proc. Natl. Acad. Sci. USA, 85:6488-6492 (1988)]. Plates were washed, dried and counted in a gamma counter to measure specific binding. Normal human serum (i.e., HIV seronegative) was used as a control.
Alternatively, ELISA assays were performed in polystyrene plates (Dynatech Laboratories, Inc) in which 0.05% Tween 20 (Sigma Chemical Co.) was included in the washing, blocking and dilution buffers. The secondary antibody used was goat […] Ig conjugated to horseradish peroxidase (HRP) (Sigma Chemical Co). The substrate used for color development was 3,3',5,5' tetramethyl-benzidine dihydrochloride (TMB) (Sigma Chemical Co). Absorbance of samples was measured in a Dynatech MR5000 (Dynatech Laboratories, Inc.) plate reader and expressed as an optical density at wavelength of 450 nm (OD450).
The following key is used for the designation of specific binding of the maternal sera samples to the peptides: The minus sign, -, is equivalent to the specific OD450 or cpm of sera sample binding to peptide divided by the specific OD450 or cpm of NHS sample binding to peptide, which value is less than 2. The plus sign, +, is equivalent to the specific OD450 or cpm of sera sample binding to peptide divided by the specific OD450 or cpm of NHS sample binding to peptide, which value is between 2 to 3.
Specific binding is defined as the difference between the OD450 or cpm of sera to wells with peptide and the OD450 or cpm of sera to wells without peptide.
Comparisons of number of peptides which bound maternal serum samples were made between the transmission group and the nontransmission group. The data was analyzed using the unpaired student's test. For the determination of differences in the binding of specific peptides between transmission and non-transmission groups, the Spearman's rank-order correlation test was performed.

[1] = Serum No. 1, Non-Transmission Group
[2] = Serum No. 2, Non-Transmission Group
[3] = Serum No. 3, Non-Transmission Group
[4] = Serum No. 4, Transmission Group
[5] = Serum No. 5, Transmission Group
[6] = Serum No. 6, Non-Transmission Group
[7] = Serum No. 7, Non-Transmission Group
[8] = Serum No. 8, Non-Transmission Group
[9] = Serum No. 9, Non-Transmission Group
[10] = Serum No. 10, Transmission Group
[11] = Serum No. 11, Non-Transmission Group
[12] = Serum No. 12, Non-Transmission Group
[13] = Serum No. 13, Transmission Group
[14] = Serum No. 14, Transmission Group
[15] = Serum No. 15, Transmission Group
[16] = Serum No. 16, Non-Transmission Group
[17] = Serum No. 17, Non-Transmission Group
[18] = Serum No. 18, Non-Transmission Group
[19] = Serum No. 19, Transmission Group
[20] = Serum No. 20, Non-Transmission Group

| Sequence | Binding of maternal HIV+ serum to peptide (sera/NHS ratio) [1] | Binding of maternal HIV+ serum to peptide (sera/NHS ratio) [2] | Binding of maternal HIV+ serum to peptide (sera/NHS ratio) [3] | Binding of maternal HIV+ serum to peptide (sera/NHS ratio) [4] | Binding of maternal HIV+ serum to peptide (sera/NHS ratio) [5] | Binding of maternal HIV+ serum to peptide (sera/NHS ratio) [6] | Binding of maternal HIV+ serum to peptide (sera/NHS ratio) [7] | Binding of maternal HIV+ serum to peptide (sera/NHS ratio) [8] | Binding of maternal HIV+ serum to peptide (sera/NHS ratio) [9] | Binding of maternal HIV+ serum to peptide (sera/NHS ratio) [10] | Binding of maternal HIV+ serum to peptide (sera/NHS ratio) [11] | Binding of maternal HIV+ serum to peptide (sera/NHS ratio) [12] | Binding of maternal HIV+ serum to peptide (sera/NHS ratio) [13] | Binding of maternal HIV+ serum to peptide (sera/NHS ratio) [14] | Binding of maternal HIV+ serum to peptide (sera/NHS ratio) [15] | Binding of maternal HIV+ serum to peptide (sera/NHS ratio) [16] | Binding of maternal HIV+ serum to peptide (sera/NHS ratio) [17] | Binding of maternal HIV+ serum to peptide (sera/NHS ratio) [18] | Binding of maternal HIV+ serum to peptide (sera/NHS ratio) [19] | Binding of maternal HIV+ serum to peptide (sera/NHS ratio) [20] | other results |
| --- | --- | --- | --- | --- | --- | --- | --- | --- | --- | --- | --- | --- | --- | --- | --- | --- | --- | --- | --- | --- | --- |
| CTRPNNNTRKSIRIQ [Peptide 106] | - (specific OD450 or cpm of sera sample binding to peptide divided by the specific OD450 or cpm of NHS sample binding to peptide, which value is less than 2) | - (specific OD450 or cpm of sera sample binding to peptide divided by the specific OD450 or cpm of NHS sample binding to peptide, which value is less than 2) | - (specific OD450 or cpm of sera sample binding to peptide divided by the specific OD450 or cpm of NHS sample binding to peptide, which value is less than 2) | - (specific OD450 or cpm of sera sample binding to peptide divided by the specific OD450 or cpm of NHS sample binding to peptide, which value is less than 2) | - (specific OD450 or cpm of sera sample binding to peptide divided by the specific OD450 or cpm of NHS sample binding to peptide, which value is less than 2) | - (specific OD450 or cpm of sera sample binding to peptide divided by the specific OD450 or cpm of NHS sample binding to peptide, which value is less than 2) | - (specific OD450 or cpm of sera sample binding to peptide divided by the specific OD450 or cpm of NHS sample binding to peptide, which value is less than 2) | - (specific OD450 or cpm of sera sample binding to peptide divided by the specific OD450 or cpm of NHS sample binding to peptide, which value is less than 2) | - (specific OD450 or cpm of sera sample binding to peptide divided by the specific OD450 or cpm of NHS sample binding to peptide, which value is less than 2) | - (specific OD450 or cpm of sera sample binding to peptide divided by the specific OD450 or cpm of NHS sample binding to peptide, which value is less than 2) | - (specific OD450 or cpm of sera sample binding to peptide divided by the specific OD450 or cpm of NHS sample binding to peptide, which value is less than 2) | - (specific OD450 or cpm of sera sample binding to peptide divided by the specific OD450 or cpm of NHS sample binding to peptide, which value is less than 2) | ++ (which value is greater than 3) | ++ (which value is greater than 3) | ++ (which value is greater than 3) | + (which value is between 2 to 3) | ++ (which value is greater than 3) | - (specific OD450 or cpm of sera sample binding to peptide divided by the specific OD450 or cpm of NHS sample binding to peptide, which value is less than 2) | - (specific OD450 or cpm of sera sample binding to peptide divided by the specific OD450 or cpm of NHS sample binding to peptide, which value is less than 2) | + (which value is between 2 to 3) | Percentage of sera samples demonstrating binding to peptide, non-transmitter (Non-transmitter group, n = 13): 23.0%; Percentage of sera samples demonstrating binding to peptide, transmitter (Transmitter / transmission group, n = 7): 42.9%; Percent of the maternal serum samples that bound to the peptide (all 20 samples): 30% |
| GYSPLSFQTHPIPR [Peptide 128] | - (specific OD450 or cpm of sera sample binding to peptide divided by the specific OD450 or cpm of NHS sample binding to peptide, which value is less than 2) | - (specific OD450 or cpm of sera sample binding to peptide divided by the specific OD450 or cpm of NHS sample binding to peptide, which value is less than 2) | - (specific OD450 or cpm of sera sample binding to peptide divided by the specific OD450 or cpm of NHS sample binding to peptide, which value is less than 2) | - (specific OD450 or cpm of sera sample binding to peptide divided by the specific OD450 or cpm of NHS sample binding to peptide, which value is less than 2) | - (specific OD450 or cpm of sera sample binding to peptide divided by the specific OD450 or cpm of NHS sample binding to peptide, which value is less than 2) | - (specific OD450 or cpm of sera sample binding to peptide divided by the specific OD450 or cpm of NHS sample binding to peptide, which value is less than 2) | - (specific OD450 or cpm of sera sample binding to peptide divided by the specific OD450 or cpm of NHS sample binding to peptide, which value is less than 2) | - (specific OD450 or cpm of sera sample binding to peptide divided by the specific OD450 or cpm of NHS sample binding to peptide, which value is less than 2) | - (specific OD450 or cpm of sera sample binding to peptide divided by the specific OD450 or cpm of NHS sample binding to peptide, which value is less than 2) | - (specific OD450 or cpm of sera sample binding to peptide divided by the specific OD450 or cpm of NHS sample binding to peptide, which value is less than 2) | - (specific OD450 or cpm of sera sample binding to peptide divided by the specific OD450 or cpm of NHS sample binding to peptide, which value is less than 2) | - (specific OD450 or cpm of sera sample binding to peptide divided by the specific OD450 or cpm of NHS sample binding to peptide, which value is less than 2) | - (specific OD450 or cpm of sera sample binding to peptide divided by the specific OD450 or cpm of NHS sample binding to peptide, which value is less than 2) | - (specific OD450 or cpm of sera sample binding to peptide divided by the specific OD450 or cpm of NHS sample binding to peptide, which value is less than 2) | - (specific OD450 or cpm of sera sample binding to peptide divided by the specific OD450 or cpm of NHS sample binding to peptide, which value is less than 2) | - (specific OD450 or cpm of sera sample binding to peptide divided by the specific OD450 or cpm of NHS sample binding to peptide, which value is less than 2) | - (specific OD450 or cpm of sera sample binding to peptide divided by the specific OD450 or cpm of NHS sample binding to peptide, which value is less than 2) | - (specific OD450 or cpm of sera sample binding to peptide divided by the specific OD450 or cpm of NHS sample binding to peptide, which value is less than 2) | - (specific OD450 or cpm of sera sample binding to peptide divided by the specific OD450 or cpm of NHS sample binding to peptide, which value is less than 2) | - (specific OD450 or cpm of sera sample binding to peptide divided by the specific OD450 or cpm of NHS sample binding to peptide, which value is less than 2) |  |

From patent US5556744A, “Methods and compositions for diagnosing and treating certain HIV infected patients” (The Trustees of the University of Pennsylvania, priority 1994, dated 1996)
